We go through 4 molecules from patent publication US20230051204A1, “ANTIMICROBIAL COMPOSITION CONTAINING WASP EXTRACT AS ACTIVE INGREDIENT” (priority 2021, published 2023).

For data set [1], the system named is Bacillus subtilis KCTC 1924. In words: Disc-paper clear zone test, antibacterial. Type of data set: cell-based. Further details: key: —: no clear zone. The note with it: antibiotic 1 μg/disc; BS. The text has this:
(§1) For evaluation of the antibacterial activities, the following strains were used: Escherichia coli KCTC 1682, Proteus vulgaris KCTC 2433, Pseudomonas aeruginosa KACC 10186, and Salmonella typhimurium KCTC 1926, which are Gram-negative bacteria, and Staphylococcus aureus KCTC 1916, Staphylococcus epidermidis ATCC 12228, and Listeria monocytogenes KACC 10550, Bacillus subtilis KCTC 1924, which are Gram-positive bacteria. Meanwhile, for evaluation of the antifungal activities, Saccharomyces cerevisiae IF0 0233 and Candida albicans KCTC 1940 that causes Candidiasis fungal infection were used.
(§2) First, for evaluation of the antibacterial activities, each bacterial strain was inoculated into nutrient broth (Difco Co., USA) and cultured at 37° C. for 24 hours. Then, each strain was adjusted to an O.D.600 of 0.1, and then 100 μl of each strain was plated on a Petri dish (90 mm, Green Cross, Korea) containing nutrient agar (Difco Co., USA) medium, and 5 μl of each extract sample added to sterile disc-paper (6.5 mm diameter, Whatsman No. 2) was added to each strain which was then incubated at 37° C. for 24 hours. For evaluation of the antifungal activities, each fungal strain was cultured using Sabouraud dextrose (Difco Co. USA) at 30° C. for 24 hours in the same manner as described above, and the antifungal activity of each extract sample was evaluated by measuring the size of the clear zone. As a control, each of the antibacterial agent ampicillin and the antifungal agent miconazole (Sigma Co., USA) was at a concentration of 1 μg/disc. The size of the clear zone was measured by measuring, in units of mm, the diameter of the part where growth was invisible with the naked eye, and was expressed as a representative result after three or more evaluations.
(§3) The antimicrobial activities of the fraction of each of the Vespa velutina nigrithorax, V. simillima simillima Smith and V. mandarinia Smith extracts, prepared in Example 4, were measured according to the same method as the antibacterial and antifungal activity evaluation described in Example 3.

Data set [2] relates to Escherichia coli KCTC 1682. In words: Disc-paper clear zone test, antibacterial. Type of data set: cell-based. Further details: key: —: no clear zone. The note with it: antibiotic 1 μg/disc; EC.
Text: as §1, §2, §3

For data set [3], the system named is Listeria monocytogenes KACC 10550. Description: Disc-paper clear zone test, antibacterial. Further details: key: —: no clear zone. It is filed as cell-based. The note with it: antibiotic 1 μg/disc; LM.
Text: as §1, §2, §3

Data set [4] has as its system Proteus vulgaris KCTC 2433. In words: Disc-paper clear zone test, antibacterial. Type of data set: cell-based. Further details: key: —: no clear zone. The note with it: antibiotic 1 μg/disc; PV.
Text: as §1, §2, §3

The subject of data set [5] is Pseudomonas aeruginosa KACC 10186. In words: Disc-paper clear zone test, antibacterial. It is filed as cell-based. Further details: key: —: no clear zone. The note with it: antibiotic 1 μg/disc; PA.
Text: as §1, §2, §3

In data set [6] the test system is Salmonella typhimurium KCTC 1926. In words: Disc-paper clear zone test, antibacterial. Type of data set: cell-based. Also on record: key: —: no clear zone. To be noted: antibiotic 1 μg/disc; ST.
Text: as §1, §2, §3

Data set [7] has as its system Staphylococcus aureus KCTC 1916. In words: Disc-paper clear zone test, antibacterial. Type of data set: cell-based. Also on record: key: —: no clear zone. The note with it: antibiotic 1 μg/disc; SA.
Text: as §1, §2, §3

Data set [8] concerns Staphylococcus epidermidis ATCC 12228. Description: Disc-paper clear zone test, antibacterial. It is filed as cell-based. Further details: key: —: no clear zone. To be noted: antibiotic 1 μg/disc; SE.
Text: as §1, §2, §3

The test system of data set [9] is Candida albicans KCTC 1940. In words: Disc-paper clear zone test, antifungal. Further details: key: —: no clear zone. To be noted: antibiotic 1 μg/disc; CA. It is filed as cell-based.
Text: as §1, §2, §3

In data set [10] the test system is Saccharomyces cerevisiae IF0 0233. Description: Disc-paper clear zone test, antifungal. Type of data set: cell-based. Also on record: key: —: no clear zone. To be noted: antibiotic 1 μg/disc; SC.
Text: as §1, §2, §3

The subject of data set [11] is gram-positive bacteria, gram-negative bacteria and fungi. Description: Disc-paper clear zone test, summary over the whole panel. Type of data set: cell-based. The note with it: 1 μg/disc; span over the gram-positive and gram-negative bacteria; read-out: Clear zone size.
Text: as §1
First, for evaluation of the antibacterial activities, each bacterial strain was inoculated into nutrient broth (Difco Co., USA) and cultured at 37° C. for 24 hours. […] For evaluation of the antifungal activities, each fungal strain was cultured using Sabouraud dextrose (Difco Co. USA) at 30° C. for 24 hours in the same manner as described above, and the antifungal activity of each extract sample was evaluated by measuring the size of the clear zone. […] The size of the clear zone was measured by measuring, in units of mm, the diameter of the part where growth was invisible with the naked eye, and was expressed as a representative result after three or more evaluations.

The subject of data set [12] is human erythrocytes. Description: Human erythrocyte hemolytic activity. To be noted: 37° C., 30 minutes. As to the method:
In order to evaluate the acute toxicities of the Vespa velutina nigrithorax, V. simillima simillima Smith and V. mandarinia Smith extracts and the fractions thereof, the human erythrocyte hemolytic activities thereof were evaluated. At this time, the hemolytic activity was evaluated according to a previous report (Son Ho-Yong et al., 2014, Korean J. Microbiol. Biotechnol. 42: 285-292). Briefly, 100 μl of human erythrocytes were washed three times with PBS and added to a 96-well microplate, and 100 μl of a sample solution at various concentrations was added thereto and then allowed to react at 37° C. for 30 minutes. Thereafter, the reaction solution was centrifuged at 1,500 rpm for 10 minutes, and 100 μl of the supernatant was transferred to a fresh microtiter plate, and then the degree of hemoglobin leakage following hemolysis was measured at 414 nm. DMSO (2%) was used as a solvent control for the sample, and Triton X-100 (1 mg/ml) was used as an experimental control for hemolysis of erythrocytes. Hemolytic activity was calculated using the following equation.
(%) Hemolysis=[(Abs. S−Abs. C)/(Abs. T−Abs. C)]×100
Abs. S: absorbance of sample-added group
Abs. C: absorbance of DMSO-added group
Abs. T: absorbance of Triton X-100-added group

Where “and” joins values, the source holds several entries; their conditions need not be identical. Equal entries are not always repeated.

With `CC1(C)S[C@@H]2[C@H](NC(=O)[C@H](N)c3ccccc3)C(=O)N2[C@H]1C(=O)O` [Ampicillin, ampicillin], the Clear zone in [1] was found to be 23.5 mm; in [2], 9.0 mm; in data set [3], 26.0 mm; in data set [4], 30.0 mm; in data set [5], 16.0 mm; in [6], 20.0 mm. Also, the Clear zone in data set [7] is on record as 26.0 mm; in [8], 20.0 mm; in data set [9], “—”; in data set [10], “—”. The zone of inhibition at 1 µg/disc in [11] is 9 to 30 mm.

In the case of Triton X-100, the “Human erythrocyte hemolytic activity” value in data set [12] (1.0 mg/ml) was 100% and 100.0 ± 0.1%.

In the case of `C[C@@H]1[C@H](O)[C@@H](C)/C=C/C=C/C=C/C=C/C=C/C=C/C=C/[C@H](O[C@@H]2O[C@H](C)[C@@H](O)[C@H](N)[C@@H]2O)C[C@@H]2O[C@](O)(C[C@@H](O)C[C@@H](O)[C@H](O)CC[C@@H](O)C[C@@H](O)CC(=O)O[C@H]1C)C[C@H](O)[C@H]2C(=O)O` [Amphotericin B], the “Human erythrocyte hemolytic activity” value in data set [12] (0.0032 mg/ml) was found to be 6.5 ± 0.9%; in [12] (0.0063 mg/ml) it was 21.6 ± 3.7%; in data set [12] (0.0125 mg/ml) it was 48.2 ± 5.9%; in data set [12] (0.05 mg/ml), 72.4 ± 5.2%; in [12] (0.1 mg/ml), 95.8 ± 0.3%.

Consider `Clc1ccc(COC(Cn2ccnc2)c2ccc(Cl)cc2Cl)c(Cl)c1` (stereo not drawn) [Miconazole, miconazole], for which the Clear zone entry in data set [1], in data set [2], in data set [3], in data set [4], in data set [5] and in data set [6] was “—” in each case. The Clear zone result is listed as “—” in data set [7], “—” in data set [8], 8.5 mm in [9] and 8.5 mm in [10].
